{"source": "patent US9580726B2", "about": "“Tomato plants comprising transgenic event Bs2-X5” (priority 2013, dated 2017)", "key": {"[1]": {"tested_on": "bacterial spot disease on tomato", "conditions": "cited from earlier work"}, "[2]": {"tested_on": "Xanthomonas bacterial isolates", "assay_type": "cell-based, Xanthomonas perforans", "conditions": "200 μg/ml, 3 days", "method": "The bacterial isolates were also tested for sensitivity to the bactericides, streptomycin and copper using established procedures. All strains were tested for growth on media with either streptomycin sulfate (200 μg/ml) or copper sulfate (pentahydrate) 200 μg/ml (0.8 mM)) after 3 days, [38]."}, "[3]": {"conditions": "Collier, zone III, Florida 47, 20 strains isolated (r19)"}, "[4]": {"conditions": "Collier, zone III, Grape, 18 strains isolated (r22)"}, "[5]": {"conditions": "Collier, zone III, Grape, 20 strains isolated (r21)"}, "[6]": {"conditions": "Collier, zone III, Large Fruit, 19 strains isolated (r23)"}, "[7]": {"conditions": "Collier, zone III, Roma, 20 strains isolated (r20)"}, "[8]": {"conditions": "Decatur, GA, zone V, Large Fruit, 19 strains isolated (r39)"}, "[9]": {"conditions": "Decatur, GA, zone V, Large Fruit, 20 strains isolated (r41)"}, "[10]": {"conditions": "Decatur, GA, zone V, Large Fruit, 20 strains isolated (r43)"}, "[11]": {"conditions": "Gadsden, zone V, Large Fruit, 19 strains isolated (r37)"}, "[12]": {"conditions": "Gadsden, zone V, Large Fruit, 20 strains isolated (r35)"}, "[13]": {"conditions": "Manatee, zone IV, Large Fruit, 20 strains isolated (r25)"}, "[14]": {"conditions": "Manatee, zone IV, Large Fruit, 20 strains isolated (r27)"}, "[15]": {"conditions": "Manatee, zone IV, Large Fruit, 20 strains isolated (r29)"}, "[16]": {"conditions": "Manatee, zone IV, Large Fruit, 20 strains isolated (r31)"}, "[17]": {"conditions": "Manatee, zone IV, Large Fruit, 20 strains isolated (r33)"}, "[18]": {"conditions": "Miami Dade, zone I, Large Fruit, 13 strains isolated (r13)"}, "[19]": {"conditions": "Miami Dade, zone I, Large Fruit, 15 strains isolated (r9)"}, "[20]": {"conditions": "Miami Dade, zone I, Large Fruit, 20 strains isolated (r11)"}, "[21]": {"conditions": "Miami Dade, zone I, Plum, 20 strains isolated (r15)"}, "[22]": {"conditions": "Palm Beach, zone II, Heirloom varieties, 14 strains isolated (r17)"}, "[23]": {"conditions": "Totals, 377 strains isolated (r45)"}}, "note": "Counter-ions that a name gives are not always drawn. Like-named read-outs stand apart in the source and are kept apart here.", "data": [{"smiles": "[Cu+2].[OH-].[OH-]", "note": "[Copper hydroxide]", "values": [{"measurement": "Significant difference between treatment and untreated control: Foliar Rating", "setting": "[1]; 2008, TN, Ref [3]", "value": "No"}, {"measurement": "Significant difference between treatment and untreated control: Marketable Yield", "setting": "[1]; 2008, TN, Ref [3]", "value": "No"}, {"measurement": "Significant difference between treatment and untreated control: AUDPC", "setting": "[1]; 2009, OH, Ref [4]", "value": "No"}, {"measurement": "Significant difference between treatment and untreated control: Marketable Yield", "setting": "[1]; 2009, OH, Ref [4]", "value": "No"}, {"measurement": "Significant difference between treatment and untreated control: Foliar Rating", "setting": "[1]; 2009, OH, Ref [4], foliar symptoms lower on copper treated plots, fruit symptoms not", "value": "Yes^f"}, {"measurement": "Significant difference between treatment and untreated control: AUDPC", "setting": "[1]; 2010, FL, Ref [6]", "value": "Yes^h"}, {"measurement": "Significant difference between treatment and untreated control: Foliar Rating", "setting": "[1]; 2010, FL, Ref [6]", "value": "No^h"}, {"measurement": "Significant difference between treatment and untreated control: Marketable Yield", "setting": "[1]; 2010, FL, Ref [6]", "value": "No"}]}, {"smiles": "O.O.O.O.O.O=S(=O)([O-])[O-].[Cu+2]", "note": "[Cu, copper sulfate (pentahydrate)]", "values": [{"measurement": "Bactericide Resistance: number of resistant strains", "setting": "[2]; [3]", "value": 20}, {"measurement": "Bactericide Resistance: number of resistant strains", "setting": "[2]; [4]", "value": 14}, {"measurement": "Bactericide Resistance: number of resistant strains", "setting": "[2]; [5]", "value": 20}, {"measurement": "Bactericide Resistance: number of resistant strains", "setting": "[2]; [6]", "value": 19}, {"measurement": "Bactericide Resistance: number of resistant strains", "setting": "[2]; [7]", "value": 20}, {"measurement": "Bactericide Resistance: number of resistant strains", "setting": "[2]; [8]", "value": 19}, {"measurement": "Bactericide Resistance: number of resistant strains", "setting": "[2]; [9]", "value": 20}, {"measurement": "Bactericide Resistance: number of resistant strains", "setting": "[2]; [10]", "value": 20}, {"measurement": "Bactericide Resistance: number of resistant strains", "setting": "[2]; [11]", "value": 19}, {"measurement": "Bactericide Resistance: number of resistant strains", "setting": "[2]; [12]", "value": 20}, {"measurement": "Bactericide Resistance: number of resistant strains", "setting": "[2]; [13]", "value": 20}, {"measurement": "Bactericide Resistance: number of resistant strains", "setting": "[2]; [14]", "value": 20}, {"measurement": "Bactericide Resistance: number of resistant strains", "setting": "[2]; [15]", "value": 20}, {"measurement": "Bactericide Resistance: number of resistant strains", "setting": "[2]; [16]", "value": 20}, {"measurement": "Bactericide Resistance: number of resistant strains", "setting": "[2]; [17]", "value": 20}, {"measurement": "Bactericide Resistance: number of resistant strains", "setting": "[2]; [18]", "value": 13}, {"measurement": "Bactericide Resistance: number of resistant strains", "setting": "[2]; [19]", "value": 15}, {"measurement": "Bactericide Resistance: number of resistant strains", "setting": "[2]; [20]", "value": 20}, {"measurement": "Bactericide Resistance: number of resistant strains", "setting": "[2]; [21]", "value": 20}, {"measurement": "Bactericide Resistance: number of resistant strains", "setting": "[2]; [22]", "value": 14}, {"measurement": "Bactericide Resistance: number of resistant strains", "setting": "[2]; [23]", "value": 377}, {"measurement": "Bactericide Resistance: number of resistant strains", "setting": "[2]; Totals, 377 strains isolated (r45), listed as copper", "value": "all current field strains were found to be resistant"}]}, {"smiles": "[H]/N=C(/N)N[C@H]1[C@H](O)[C@@H](O)[C@H](O[C@@H]2O[C@@H](C)[C@](O)(C=O)[C@H]2O[C@@H]2O[C@@H](CO)[C@H](O)[C@@H](O)[C@@H]2NC)[C@@H](N/C(N)=N\\[H])[C@@H]1O", "note": "[St, streptomycin sulfate]", "values": [{"measurement": "Bactericide Resistance: number of resistant strains", "setting": "[2]; [3]", "value": 0}, {"measurement": "Bactericide Resistance: number of resistant strains", "setting": "[2]; [4]", "value": 0}, {"measurement": "Bactericide Resistance: number of resistant strains", "setting": "[2]; [5]", "value": 0}, {"measurement": "Bactericide Resistance: number of resistant strains", "setting": "[2]; [6]", "value": 0}, {"measurement": "Bactericide Resistance: number of resistant strains", "setting": "[2]; [7]", "value": 0}, {"measurement": "Bactericide Resistance: number of resistant strains", "setting": "[2]; [8]", "value": 0}, {"measurement": "Bactericide Resistance: number of resistant strains", "setting": "[2]; [9]", "value": 0}, {"measurement": "Bactericide Resistance: number of resistant strains", "setting": "[2]; [10]", "value": 0}, {"measurement": "Bactericide Resistance: number of resistant strains", "setting": "[2]; [11]", "value": 0}, {"measurement": "Bactericide Resistance: number of resistant strains", "setting": "[2]; [12]", "value": 0}, {"measurement": "Bactericide Resistance: number of resistant strains", "setting": "[2]; [13]", "value": 0}, {"measurement": "Bactericide Resistance: number of resistant strains", "setting": "[2]; [14]", "value": 0}, {"measurement": "Bactericide Resistance: number of resistant strains", "setting": "[2]; [15]", "value": 0}, {"measurement": "Bactericide Resistance: number of resistant strains", "setting": "[2]; [16]", "value": 1}, {"measurement": "Bactericide Resistance: number of resistant strains", "setting": "[2]; [17]", "value": 0}, {"measurement": "Bactericide Resistance: number of resistant strains", "setting": "[2]; [18]", "value": 0}, {"measurement": "Bactericide Resistance: number of resistant strains", "setting": "[2]; [19]", "value": 0}, {"measurement": "Bactericide Resistance: number of resistant strains", "setting": "[2]; [20]", "value": 19}, {"measurement": "Bactericide Resistance: number of resistant strains", "setting": "[2]; [21]", "value": 0}, {"measurement": "Bactericide Resistance: number of resistant strains", "setting": "[2]; [22]", "value": 0}, {"measurement": "Bactericide Resistance: number of resistant strains", "setting": "[2]; [23]", "value": 20}, {"measurement": "Bactericide Resistance: number of resistant strains", "setting": "[2]; Totals, 377 strains isolated (r45), listed as streptomycin", "value": "streptomycin resistant strains were found in two of our survey collection areas"}]}]}
